This is an account of results in US20210317134A1, “UBIQUITIN-SPECIFIC-PROCESSING PROTEASE 7 (USP7) MODULATORS AND USES THEREOF” (RAPT THERAPEUTICS, INC., priority 2019, published 2021).

The term IC50 denotes the concentration that gives 50% inhibition.

USP7, sequence (Q93009 whole entry): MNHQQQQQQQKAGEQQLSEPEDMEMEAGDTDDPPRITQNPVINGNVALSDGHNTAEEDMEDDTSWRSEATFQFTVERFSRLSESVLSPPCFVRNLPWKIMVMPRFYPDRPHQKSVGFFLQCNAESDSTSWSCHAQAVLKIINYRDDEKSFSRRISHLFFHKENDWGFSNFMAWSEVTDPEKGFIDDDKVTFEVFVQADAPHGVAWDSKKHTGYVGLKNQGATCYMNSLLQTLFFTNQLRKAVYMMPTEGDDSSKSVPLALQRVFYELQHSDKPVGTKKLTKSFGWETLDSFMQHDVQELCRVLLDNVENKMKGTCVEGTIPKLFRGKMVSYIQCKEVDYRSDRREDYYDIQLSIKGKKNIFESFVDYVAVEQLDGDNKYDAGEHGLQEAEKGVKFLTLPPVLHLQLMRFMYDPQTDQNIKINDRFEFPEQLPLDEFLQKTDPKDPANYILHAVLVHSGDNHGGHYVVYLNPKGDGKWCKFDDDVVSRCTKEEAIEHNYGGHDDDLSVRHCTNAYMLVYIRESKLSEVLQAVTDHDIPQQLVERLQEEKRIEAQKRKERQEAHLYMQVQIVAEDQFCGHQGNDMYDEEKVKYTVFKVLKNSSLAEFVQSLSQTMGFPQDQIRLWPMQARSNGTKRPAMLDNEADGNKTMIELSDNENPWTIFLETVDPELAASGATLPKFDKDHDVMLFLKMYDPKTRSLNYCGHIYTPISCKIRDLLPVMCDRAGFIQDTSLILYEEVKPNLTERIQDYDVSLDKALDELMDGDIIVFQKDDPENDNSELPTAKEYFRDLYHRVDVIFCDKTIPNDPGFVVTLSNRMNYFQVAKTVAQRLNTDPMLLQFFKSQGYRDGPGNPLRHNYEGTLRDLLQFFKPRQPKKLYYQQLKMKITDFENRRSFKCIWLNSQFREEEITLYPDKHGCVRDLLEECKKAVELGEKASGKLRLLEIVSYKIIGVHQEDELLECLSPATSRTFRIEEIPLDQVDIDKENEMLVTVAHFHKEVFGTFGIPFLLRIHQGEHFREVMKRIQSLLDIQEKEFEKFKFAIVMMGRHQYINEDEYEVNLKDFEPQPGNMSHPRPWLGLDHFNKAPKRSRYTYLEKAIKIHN

The assay concerns the target USP7 (Homo sapiens, UniProt Q93009). Nature of the assay: USP7 inhibitory potency (Table 1). It counts as biochemical.
Regarding `OCc1cc2nccc(-c3cc(Cl)cc4c3OC(c3onc5c3CNCC5)C4)n2n1` (stereo not shown) [(7-(5-chloro-2-(4,5,6,7-tetrahydroisoxazolo[4,3-c]pyridin-3-yl)-2,3-dihydrobenzofuran-7-yl)pyrazolo[1,5-a]pyrimidin-2-yl)methanol], the IC50 lay within 1 to 10 µM.

`CN(C)[C@H]1CCc2noc(C3Cc4cc(Cl)cc(-c5ccnc6cc(CO)sc56)c4O3)c2C1` (stereo partly drawn) [(7-(5-chloro-2-((S)-5-(dimethylamino)-4,5,6,7-tetrahydrobenzo[c]isoxazol-3-yl)-2,3-dihydrobenzofuran-7-yl)thieno[3,2-b]pyridin-2-yl)methanol] registered an IC50 of 1 to 10 µM. On to `CC1(c2onc3c2CNCC3)Cc2cc(Cl)cc(-c3ccnc4cc(CO)sc34)c2O1` (stereo not shown) [(7-(5-chloro-2-methyl-2-(4,5,6,7-tetrahydroisoxazolo[4,3-c]pyridin-3-yl)-2,3-dihydrobenzofuran-7-yl)thieno[3,2-b]pyridin-2-yl)methanol], for which the IC50 is less than 1 µM.

In turn, `Cn1nc2c(c1[C@H]1Cc3cc(Cl)cc(-c4ccnc5cc(CO)sc45)c3O1)CC(N1CCC1)CC2` (stereo partly drawn) [(7-((2R)-2-(5-(azetidin-1-yl)-2-methyl-4,5,6,7-tetrahydro-2H-indazol-3-yl)-5-chloro-2,3-dihydrobenzofuran-7-yl)thieno[3,2-b]pyridin-2-yl)methanol] gave an IC50 of less than 1 µM. In turn, `CN(C)C1CCc2nn(C)c([C@H]3Cc4cc(Cl)cc(-c5ccnc6cc(CO)sc56)c4O3)c2C1` (stereo partly drawn) [(7-((2R)-5-chloro-2-(5-(dimethylamino)-2-methyl-4,5,6,7-tetrahydro-2H-indazol-3-yl)-2,3-dihydrobenzofuran-7-yl)thieno[3,2-b]pyridin-2-yl)methanol] yielded an IC50 of less than 1 µM. The molecule `CN(C)C1CCc2noc([C@H]3Cc4cc(Cl)cc(-c5ccnc6cc(CO)sc56)c4O3)c2C1` (stereo partly drawn) [(7-((2R)-5-chloro-2-(5-(dimethylamino)-4,5,6,7-tetrahydrobenzo[c]isoxazol-3-yl)-2,3-dihydrobenzofuran-7-yl)thieno[3,2-b]pyridin-2-yl)methanol] displayed an IC50 of less than 1 µM. The value for `OCC1Cc2nccc(-c3cc(Cl)cc4c3O[C@@H](c3onc5c3CNCC5)C4)c2O1` (stereo partly drawn) [(7-((R)-5-chloro-2-(4,5,6,7-tetrahydroisoxazolo[4,3-c]pyridin-3-yl)-2,3-dihydrobenzofuran-7-yl)-2,3-dihydrofuro[3,2-b]pyridin-2-yl)methanol] was 10 to 30 µM; that for `CN(C)[C@@H]1CCc2noc([C@H]3Cc4cc(Cl)cc(-c5ccnc6cc(CO)sc56)c4O3)c2C1` [(7-((R)-5-chloro-2-((R)-5-(dimethylamino)-4,5,6,7-tetrahydrobenzo[c]isoxazol-3-yl)-2,3-dihydrobenzofuran-7-yl)thieno[3,2-b]pyridin-2-yl)methanol] was less than 1 µM; that for `CCC(O)(CO)c1cc2nccc(-c3cc(Cl)cc4c3O[C@@H](C(=O)N3CCNCC3)C4)c2s1` (stereo partly drawn) [((2R)-5-chloro-7-(2-(1,2-dihydroxybutan-2-yl)thieno[3,2-b]pyridin-7-yl)-2,3-dihydrobenzofuran-2-yl)(piperazin-1-yl)methanone] was less than 1 µM. The value for `CC(O)(CO)c1cc2nccc(-c3cc(Cl)cc4c3O[C@@H](C(=O)N3CCNCC3)C4)c2s1` (stereo partly drawn) [((2R)-5-chloro-7-(2-(1,2-dihydroxypropan-2-yl)thieno[3,2-b]pyridin-7-yl)-2,3-dihydrobenzofuran-2-yl)(piperazin-1-yl)methanone] was less than 1 µM; that for `O=C([C@H]1Cc2cc(Cl)cc(-c3ccnc4cc(C(O)(CO)CCl)sc34)c2O1)N1CCNCC1` (stereo partly drawn) [((2R)-5-chloro-7-(2-(1-chloro-2,3-dihydroxypropan-2-yl)thieno[3,2-b]pyridin-7-yl)-2,3-dihydrobenzofuran-2-yl)(piperazin-1-yl)methanone] was less than 1 µM; that for `CCC(CO)c1cc2nccc(-c3cc(Cl)cc4c3O[C@@H](C(=O)N3CCNCC3)C4)c2s1` (stereo partly drawn) [((2R)-5-chloro-7-(2-(1-hydroxybutan-2-yl)thieno[3,2-b]pyridin-7-yl)-2,3-dihydrobenzofuran-2-yl)(piperazin-1-yl)methanone] was less than 1 µM. Then `CC(O)c1cc2nccc(-c3cc(Cl)cc4c3O[C@@H](C(=O)N3CCNCC3)C4)c2s1` (stereo partly drawn) [((2R)-5-chloro-7-(2-(1-hydroxyethyl)thieno[3,2-b]pyridin-7-yl)-2,3-dihydrobenzofuran-2-yl)(piperazin-1-yl)methanone], with less than 1 µM. For the molecule `O=C([C@H]1Cc2cc(Cl)cc(-c3ccnc4cc(C(O)CCl)sc34)c2O1)N1CCNCC1` (stereo partly drawn) [((2R)-5-chloro-7-(2-(2-chloro-1-hydroxyethyl)thieno[3,2-b]pyridin-7-yl)-2,3-dihydrobenzofuran-2-yl)(piperazin-1-yl)methanone], the IC50 was less than 1 µM. Then `CC(O)Cc1cc2nccc(-c3cc(Cl)cc4c3O[C@@H](C(=O)N3CCNCC3)C4)c2s1` (stereo partly drawn) [((2R)-5-chloro-7-(2-(2-hydroxypropyl)thieno[3,2-b]pyridin-7-yl)-2,3-dihydrobenzofuran-2-yl)(piperazin-1-yl)methanone], with less than 1 µM.

As to `CCC(O)C1Cc2nccc(-c3cc(Cl)cc4c3O[C@@H](C(=O)N3CCNCC3)C4)c2C1` (stereo partly drawn) [((2R)-5-chloro-7-(6-(1-hydroxypropyl)-6,7-dihydro-5H-cyclopenta[b]pyridin-4-yl)-2,3-dihydrobenzofuran-2-yl)(piperazin-1-yl)methanone], the IC50 is less than 1 µM.

Molecule `CCC(O)c1cc2ncnc(-c3cc(Cl)cc4c3O[C@@H](C(=O)N3CCNCC3)C4)c2s1` (stereo partly drawn) [((2R)-5-chloro-7-(6-(1-hydroxypropyl)thieno[3,2-d]pyrimidin-4-yl)-2,3-dihydrobenzofuran-2-yl)(piperazin-1-yl)methanone] returned an IC50 of less than 1 µM.

`CC1(CO)Cc2nccc(-c3cc(Cl)cc4c3O[C@@H](C(=O)N3CCNCC3)C4)c2C1` (stereo partly drawn) [((2R)-5-chloro-7-(6-(hydroxymethyl)-6-methyl-6,7-dihydro-5H-cyclopenta[b]pyridin-4-yl)-2,3-dihydrobenzofuran-2-yl)(piperazin-1-yl)methanone]: the IC50 is less than 1 µM. With `CCCC1(CO)Cc2nccc(-c3cc(Cl)cc4c3O[C@@H](C(=O)N3CCNCC3)C4)c2C1` (stereo partly drawn) [((2R)-5-chloro-7-(6-(hydroxymethyl)-6-propyl-6,7-dihydro-5H-cyclopenta[b]pyridin-4-yl)-2,3-dihydrobenzofuran-2-yl)(piperazin-1-yl)methanone], the IC50 lay in the range of 1 to 10 µM.

Turning to `CCC1(CO)Cc2nccc(-c3cc(Cl)cc4c3O[C@@H](C(=O)N3CCNCC3)C4)c2C1` (stereo partly drawn) [((2R)-5-chloro-7-(6-ethyl-6-(hydroxymethyl)-6,7-dihydro-5H-cyclopenta[b]pyridin-4-yl)-2,3-dihydrobenzofuran-2-yl)(piperazin-1-yl)methanone], the IC50 fell in the range of 1 to 10 µM. `CC(O)c1ccc2c(-c3cc(Cl)cc4c3O[C@@H](C(=O)N3CCNCC3)C4)ccnc2c1` (stereo partly drawn) [((2R)-5-chloro-7-(7-(1-hydroxyethyl)quinolin-4-yl)-2,3-dihydrobenzofuran-2-yl)(piperazin-1-yl)methanone]: the IC50 is less than 1 µM. The value for `CCC(O)c1ccc2c(-c3cc(Cl)cc4c3O[C@@H](C(=O)N3CCNCC3)C4)ccnc2c1` (stereo partly drawn) [((2R)-5-chloro-7-(7-(1-hydroxypropyl)quinolin-4-yl)-2,3-dihydrobenzofuran-2-yl)(piperazin-1-yl)methanone] was 1 to 10 µM.

As for `CC[C@@H](O)c1cc2nccc(-c3cc(Cl)cc4c3O[C@@H](C(=O)N3CCNCC3)C4)c2s1` [((R)-5-chloro-7-(2-((R)-1-hydroxypropyl)thieno[3,2-b]pyridin-7-yl)-2,3-dihydrobenzofuran-2-yl)(piperazin-1-yl)methanone], the IC50 is less than 1 µM. The molecule `CC[C@H](O)c1cc2nccc(-c3cc(Cl)cc4c3O[C@@H](C(=O)N3CCNCC3)C4)c2s1` [((R)-5-chloro-7-(2-((S)-1-hydroxypropyl)thieno[3,2-b]pyridin-7-yl)-2,3-dihydrobenzofuran-2-yl)(piperazin-1-yl)methanone] returned an IC50 of less than 1 µM. The value for `CN(C)C1CCCN(C(=O)[C@H]2Cc3cc(Cl)cc(-c4ccnc5cc(CO)sc45)c3O2)C1` (stereo partly drawn) [((R)-5-chloro-7-(2-(hydroxymethyl)thieno[3,2-b]pyridin-7-yl)-2,3-dihydrobenzofuran-2-yl)(3-(dimethylamino)piperidin-1-yl)methanone] was less than 1 µM. As for `CN(C)[C@@H]1CCN(C(=O)[C@H]2Cc3cc(Cl)cc(-c4ccnc5cc(CO)sc45)c3O2)C1` [((R)-5-chloro-7-(2-(hydroxymethyl)thieno[3,2-b]pyridin-7-yl)-2,3-dihydrobenzofuran-2-yl)((R)-3-(dimethylamino)pyrrolidin-1-yl)methanone], the IC50 is less than 1 µM.

Take `CN(C)[C@H]1CCN(C(=O)[C@H]2Cc3cc(Cl)cc(-c4ccnc5cc(CO)sc45)c3O2)C1` [((R)-5-chloro-7-(2-(hydroxymethyl)thieno[3,2-b]pyridin-7-yl)-2,3-dihydrobenzofuran-2-yl)((S)-3-(dimethylamino)pyrrolidin-1-yl)methanone]: the IC50 is 1 to 10 µM. Then `CN[C@H]1CCCN(C(=O)[C@H]2Cc3cc(Cl)cc(-c4ccnc5cc(CO)sc45)c3O2)C1` [((R)-5-chloro-7-(2-(hydroxymethyl)thieno[3,2-b]pyridin-7-yl)-2,3-dihydrobenzofuran-2-yl)((S)-3-(methylamino)piperidin-1-yl)methanone], with less than 1 µM; and `O=C([C@H]1Cc2cc(Cl)cc(-c3ccnc4cc(CO)sc34)c2O1)N1CC[C@H](O)C1` [((R)-5-chloro-7-(2-(hydroxymethyl)thieno[3,2-b]pyridin-7-yl)-2,3-dihydrobenzofuran-2-yl)((S)-3-hydroxypyrrolidin-1-yl)methanone], with 10 to 30 µM; and `CN(C)C1CCCN(C(=O)[C@H]2Cc3cc(Cl)cc(-c4ccnc5ccsc45)c3O2)C1` (stereo partly drawn) [((R)-5-chloro-7-(thieno[3,2-b]pyridin-7-yl)-2,3-dihydrobenzofuran-2-yl)(3-(dimethylamino)piperidin-1-yl)methanone], with less than 1 µM.

`CN(C)[C@@H]1CCN(C(=O)[C@H]2Cc3cc(Cl)cc(-c4ccnc5ccsc45)c3O2)C1` [((R)-5-chloro-7-(thieno[3,2-b]pyridin-7-yl)-2,3-dihydrobenzofuran-2-yl)((R)-3-(dimethylamino)pyrrolidin-1-yl)methanone] registered an IC50 of less than 1 µM.
